Test results from patent US20260125378A2, “Heterocyclic Compounds” (BeOne Medicines I GmbH, priority 2023, published 2026).

Legend:
[1] = biological target: T1, Full length DGKζ (in-house protein M1-V929) (Homo sapiens, UniProt Q13574); assay: Biochemical DGK IC50 assay (ADP-Glo, lipid micelle substrate), DGKζ; settings: 1 hour preincubation, 1 hour reaction, room temperature
T1 construct: His (N); TEV site (N); made in house; host or cells: Sf9 insect cells (Bac-to-Bac baculovirus)
Method: (§1) Enzymatic reactions of DGKζ, DGKα and DGKδ were performed using ADP-Glo assay with lipid micelle substrate. […] Full length DGKα (D21-10BG, SignalChem) and full length DGKδ (D23-10G, SignalChem) were purchased. Lipid micelle was prepared by dissolving DAG (Sigma, 317505-10 MG) and PS (Sigma, P7769-100 MG) with chloroform which was furtherly removed by rotary evaporation. The obtained residue was resuspended in buffer containing 25 mM HEPES pH 7.0, 0.5 mM EDTA and 160 mM Octyl β-D glucopyranoside by vigorous mixing and ultrasonic (IID, Scientz).
(§2) The inhibition activities testing for the compound disclosed herein were carried out at room temperature in assay buffer containing 50 mM HEPES, 10 mM MgCl2, 0.01% BSA, 0.1 mM Na3VO4, 0.005% Tween-20 and 0.01 mM CaCl2). Compounds in DMSO were dispensed into wells of a black 384 well plate (Corning 4514) using D300e digital dispenser (Tecan). […] 3 μL 2× enzyme solution was added to wells. […] After 1 hour reaction, 5 μL ADP-Glo reagent (Promga V9101) was added and incubated for 40 minutes. 10 μL Kinase Detection reagent was added and incubated for 30 minutes. Luminescence was measured on a microplate reader (PHERAstar FSX, BMG labtech). The IC50S are calculated based on inhibition of enzyme activity in the presence of increasing concentrations of compounds.
Human His-TEV-DGK-zeta-pFastBac1 and human baculovirus samples was generated using the Bac- to -Bac baculovirus expression system (Invitrogen) according to the manufacturer's protocol. The DNA used for expression of DGK-zeta, have SEQ ID Nos: 1. Baculovirus amplification was achieved using infected SF9 cells at 1:2000 virus/cells ratios, and grown for 96 hours at 27° C. post-transfected.
The expression scaled up for each protein was carried out in the […] from CORNING. 4 L of 3×10^6 cells/mL Sf9 cells (Expression System, Invitrogen) grown in SF900™ II SFM insect medium (Expression System) was infected with virus stock at 1:200 virus/cells ratio, and grown for 48 hours at 27° C. post-transfection. The infected cell culture was harvested by centrifugation at 6000 rpm for 15 min 4° C. in a SORVALL LYNX6000 centrifuge. The cell pellets were stored at −80° C.
Full length human DGKζ produced as described above, was purified from Sf9 baculovirus-infected insect cell paste. The cells were lysed using sonication method, and the lysates were clarified by centrifugation.

[2] = biological target: T2, Full length DGKα (D21-10BG, SignalChem) (Homo sapiens, UniProt P23743); assay: Biochemical DGK IC50 assay (ADP-Glo, lipid micelle substrate), DGKα; settings: 1 hour preincubation, 1 hour reaction, room temperature
T2 construct: Full length DGKα (D21-10BG, SignalChem); purchased SignalChem D21-10BG
Method: as §1, §2

T2 sequence (P23743 whole entry): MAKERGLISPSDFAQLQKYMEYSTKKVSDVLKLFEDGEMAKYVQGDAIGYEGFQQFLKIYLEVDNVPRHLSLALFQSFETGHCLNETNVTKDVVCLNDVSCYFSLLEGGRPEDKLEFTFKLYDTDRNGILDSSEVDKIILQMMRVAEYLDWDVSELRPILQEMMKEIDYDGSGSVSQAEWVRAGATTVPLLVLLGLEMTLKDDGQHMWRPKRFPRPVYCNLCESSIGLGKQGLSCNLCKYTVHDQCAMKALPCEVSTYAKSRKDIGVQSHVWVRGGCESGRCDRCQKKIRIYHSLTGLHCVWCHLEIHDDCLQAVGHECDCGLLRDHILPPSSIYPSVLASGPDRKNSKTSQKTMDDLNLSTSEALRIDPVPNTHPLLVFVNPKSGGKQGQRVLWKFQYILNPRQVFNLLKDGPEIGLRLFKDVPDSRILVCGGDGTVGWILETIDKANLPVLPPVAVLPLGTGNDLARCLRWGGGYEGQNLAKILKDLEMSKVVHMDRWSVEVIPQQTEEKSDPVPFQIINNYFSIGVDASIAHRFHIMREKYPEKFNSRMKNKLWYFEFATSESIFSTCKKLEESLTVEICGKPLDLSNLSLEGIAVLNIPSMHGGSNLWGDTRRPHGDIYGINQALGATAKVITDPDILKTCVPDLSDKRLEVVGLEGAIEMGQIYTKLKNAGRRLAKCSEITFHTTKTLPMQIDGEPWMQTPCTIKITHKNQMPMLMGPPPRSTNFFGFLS
T1 sequence (Q13574 1-929 isoform Q13574-4): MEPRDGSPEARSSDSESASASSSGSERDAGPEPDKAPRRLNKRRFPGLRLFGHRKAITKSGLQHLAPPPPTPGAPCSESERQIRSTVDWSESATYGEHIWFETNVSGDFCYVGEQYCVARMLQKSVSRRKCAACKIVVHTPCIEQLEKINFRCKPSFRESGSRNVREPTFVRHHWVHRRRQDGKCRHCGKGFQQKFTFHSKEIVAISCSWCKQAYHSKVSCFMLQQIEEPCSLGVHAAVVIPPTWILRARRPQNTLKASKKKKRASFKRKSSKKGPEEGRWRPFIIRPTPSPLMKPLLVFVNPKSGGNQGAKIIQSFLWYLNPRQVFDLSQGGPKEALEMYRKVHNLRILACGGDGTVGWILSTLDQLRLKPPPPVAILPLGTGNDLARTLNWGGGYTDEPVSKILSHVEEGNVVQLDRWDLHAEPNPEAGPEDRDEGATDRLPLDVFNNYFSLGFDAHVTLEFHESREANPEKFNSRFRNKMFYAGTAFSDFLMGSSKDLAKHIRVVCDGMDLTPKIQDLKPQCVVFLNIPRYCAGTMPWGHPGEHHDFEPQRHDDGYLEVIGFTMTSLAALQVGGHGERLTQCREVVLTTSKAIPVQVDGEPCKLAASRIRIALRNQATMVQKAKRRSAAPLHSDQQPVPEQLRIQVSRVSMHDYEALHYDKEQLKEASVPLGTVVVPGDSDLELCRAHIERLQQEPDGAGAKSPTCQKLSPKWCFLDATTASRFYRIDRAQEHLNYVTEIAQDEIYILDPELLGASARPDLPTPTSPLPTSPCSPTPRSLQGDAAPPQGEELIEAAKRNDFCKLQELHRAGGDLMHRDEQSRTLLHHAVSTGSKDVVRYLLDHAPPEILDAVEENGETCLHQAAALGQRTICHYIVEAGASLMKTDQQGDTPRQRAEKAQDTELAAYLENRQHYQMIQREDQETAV

| SMILES | IC50 [1] [µM] | IC50 [2] [µM] |
| --- | --- | --- |
| CCn1c(CC#N)nc2c(N3C[C@@H](C)N(C(C)c4ccc5c(n4)C(C)(C)CO5)C[C@@H]3C)nc(=O)n(C)c21 (stereo partly drawn) [Compound A181, 2-(6-((2S,5R)-4-(1-(3,3-dimethyl-2,3-dihydrofuro[3,2-b]pyridin-5-yl)ethyl)-2,5-dimethylpiperazin-1-yl)-9-ethyl-3-methyl-2-oxo-3,9-dihydro-2H-purin-8-yl)acetonitrile] | 0.017 | > 150 |
| CCn1c(CC#N)nc2c(N3C[C@@H](C)N(C(C)c4ccc(C(F)(F)F)cc4)C[C@@H]3C)nc(=O)n(C)c21 (stereo partly drawn) [Compound A40, 2-(6-((2S,5R)-2,5-dimethyl-4-(1-(4-(trifluoromethyl)phenyl)ethyl)piperazin-1-yl)-9-ethyl-3-methyl-2-oxo-3,9-dihydro-2H-purin-8-yl)acetonitrile] | 0.398 | 25.9 |
| CCn1c(CC#N)nc2c(N3C[C@@H](C)N(C(C)c4nc5c(cc4Cl)OCC(C)(C)O5)C[C@@H]3C)nc(=O)n(C)c21 (stereo partly drawn) [Compound A160, 2-(6-((2S,5R)-4-(1-(7-chloro-3,3-dimethyl-2,3-dihydro-[1,4]dioxino[2,3-b]pyridin-6-yl)ethyl)-2,5-dimethylpiperazin-1-yl)-9-ethyl-3-methyl-2-oxo-3,9-dihydro-2H-purin-8-yl)acetonitrile] | 0.331 | > 150 |
| CC(c1cc(F)c2c(n1)OC(C)(C)CO2)N1C[C@H](C)N(c2nc(=O)n(C)c3c2nc(CC#N)n3C)C[C@H]1C (stereo partly drawn) [Compound A164, 2-(6-((2S,5R)-4-(1-(8-fluoro-3,3-dimethyl-2,3-dihydro-[1,4]dioxino[2,3-b]pyridin-6-yl)ethyl)-2,5-dimethylpiperazin-1-yl)-3,9-dimethyl-2-oxo-3,9-dihydro-2H-purin-8-yl)acetonitrile] | 0.031 | 125 |
| CC(c1ccc(F)cc1C(F)(F)F)N1C[C@H](C)N(c2cc(=O)n(C)c3[nH]c(CC#N)nc23)C[C@H]1C (single isomer, unassigned) [Compound A9a] | 8.59 | > 10 |
| CCn1c(CC#N)nc2c(N3C[C@@H](C)N(C(C)c4cccc(C(F)(F)F)c4)C[C@@H]3C)nc(=O)n(C)c21 (single isomer, unassigned) [Compound A42a] | 0.024 | 78.7 |
| CC(c1ccc2c(c1)OC(C)(C)CO2)N1C[C@H](C)N(c2c(F)c(=O)n(C)c3c2nc(CC#N)n3C)C[C@H]1C (single isomer, unassigned) [Compound A19a] | 0.0028 | 27.5 |
| CCn1c(CC#N)nc2c(N3C[C@@H](C)N(C(C)c4ccc(OC)c(C(C)(F)F)c4)C[C@@H]3C)nc(=O)n(C)c21 (stereo partly drawn) [Compound A39, 2-(6-((2S,5R)-4-(1-(3-(1,1-difluoroethyl)-4-methoxyphenyl)ethyl)-2,5-dimethylpiperazin-1-yl)-9-ethyl-3-methyl-2-oxo-3,9-dihydro-2H-purin-8-yl)acetonitrile] | 0.211 | > 150 |
| CCn1c(CC#N)nc2c(N3C[C@@H](C)N(C(=O)c4ccc5c(n4)C(C)(C)CO5)C[C@@H]3C)nc(=O)n(C)c21 [Compound A182, 2-(6-((2S,5R)-4-(3,3-dimethyl-2,3-dihydrofuro[3,2-b]pyridine-5-carbonyl)-2,5-dimethylpiperazin-1-yl)-9-ethyl-3-methyl-2-oxo-3,9-dihydro-2H-purin-8-yl)acetonitrile] | 0.499 | > 150 |
| CCn1c(CC#N)nc2c(N3C[C@@H](C)N(C(C)c4ccc5c(c4)OC(C)(C)CO5)C[C@@H]3C)nc(=O)n(C)c21 (single isomer, unassigned) [Compound A60a] | 0.0033 | 72.5 |
| COc1cc(F)ccc1C(C)N1C[C@H](C)N(c2cc(=O)n(C)c3c2nc(CC#N)n3C)C[C@H]1C (single isomer, unassigned) [Compound A4a] | 0.566 | > 10 |

More lines, in order of falling IC50 [1], values ahead:

| IC50 [1] [µM] | IC50 [2] [µM] | SMILES |
| --- | --- | --- |
| 0.975 | > 10 | COc1cc(F)ccc1C(C)N1C[C@H](C)N(c2nc(=O)n(C)c3c2nc(CC#N)n3C)C[C@H]1C (single isomer, unassigned) [Compound A24a] |
| 0.201 | 9.52 | CCn1c(CC#N)nc2c(N3C[C@@H](C)N(C(C)c4ccc5c(c4)CN(CC(F)(F)F)C5=O)C[C@@H]3C)nc(=O)n(C)c21 (stereo partly drawn) [Compound A82, 2-(6-((2S,5R)-2,5-dimethyl-4-(1-(1-oxo-2-(2,2,2-trifluoroethyl)isoindolin-5-yl)ethyl)piperazin-1-yl)-9-ethyl-3-methyl-2-oxo-3,9-dihydro-2H-purin-8-yl)acetonitrile] |
| 0.119 | > 150 | CCn1c(CC#N)nc2c(N3C[C@@H](C)N(C(C)c4ccc5c(c4)C(=O)N(C)CO5)C[C@@H]3C)nc(=O)n(C)c21 (stereo partly drawn) [Compound A192, 2-(6-((2S,5R)-2,5-dimethyl-4-(1-(3-methyl-4-oxo-3,4-dihydro-2H-benzo[e][1,3]oxazin-6-yl)ethyl)piperazin-1-yl)-9-ethyl-3-methyl-2-oxo-3,9-dihydro-2H-purin-8-yl)acetonitrile] |
| 0.097 | > 150 | Cc1ccc(C(C)N2C[C@H](C)N(c3cc(=O)n(C)c4c3nc(CC#N)n4C)C[C@H]2C)c(C(F)(F)F)c1 (single isomer, unassigned) [Compound A8b] |
| 0.071 | 34.5 | CCn1c(CC#N)nc2c(N3C[C@@H](C)N(C(C)c4ccc5c(c4)OC(F)(F)O5)C[C@@H]3C)nc(=O)n(C)c21 (single isomer, unassigned) [Compound A99a] |
| 0.048 | > 150 | CCn1c(CC#N)nc2c(N3C[C@@H](C)N(C(C)c4cc(F)c5c(n4)OC(C)(C)CO5)C[C@@H]3C)nc(=O)n(C)c21 (mixture of isomers) [Compound A163, 2-(9-ethyl-6-((2S,5R)-4-(1-(8-fluoro-3,3-dimethyl-2,3-dihydro-[1,4]dioxino[2,3-b]pyridin-6-yl)ethyl)-2,5-dimethylpiperazin-1-yl)-3-methyl-2-oxo-3,9-dihydro-2H-purin-8-yl)acetonitrile] |
| 0.025 | 103 | CCn1c(CC#N)nc2c(N3C[C@@H](C)N(C(C)c4ccc5c(c4)OC(C)(C)O5)C[C@@H]3C)nc(=O)n(C)c21 (mixture of isomers) [Compound A85, 2-(6-((2S,5R)-4-(1-(2,2-dimethylbenzo[d][1,3]dioxol-5-yl)ethyl)-2,5-dimethylpiperazin-1-yl)-9-ethyl-3-methyl-2-oxo-3,9-dihydro-2H-purin-8-yl)acetonitrile] |
| 0.014 | 26.1 | CC(c1ccc2c(c1)OC(C)(C)O2)N1C[C@H](C)N(c2nc(=O)n(C)c3c2nc(CC#N)n3CC(F)F)C[C@H]1C (stereo partly drawn) [Compound A166, 2-(9-(2,2-difluoroethyl)-6-((2S,5R)-4-(1-(2,2-dimethylbenzo[d][1,3]dioxol-5-yl)ethyl)-2,5-dimethylpiperazin-1-yl)-3-methyl-2-oxo-3,9-dihydro-2H-purin-8-yl)acetonitrile] |
| 0.007 | 65.6 | CCn1c(CC#N)nc2c(N3C[C@@H](C)N(C(C)c4ccc5c(c4)OC(F)(F)CO5)C[C@@H]3C)nc(=O)n(C)c21 (single isomer, unassigned) [Compound A80a] |
